Laboratory results taken from ChEMBL document CHEMBL5154835, “Design, synthesis and biological evaluation of sulfonamides inhibitors of XPO1 displaying activity against multiple myeloma cells” (Eur J Med Chem, 2022).

System: MM1.S
Assay: Antiproliferative activity against human MM1.S cells assessed as inhibition of cell growth incubated for 4 hrs by CCK-8 assay
Format: functional, cell-based

Structure (SMILES)	IC50
CCOc1ccc(/C(=C\n2cnc(-c3cc(C(F)(F)F)cc(C(F)(F)F)c3)n2)C(N)=O)c(F)c1F	> 10000 nM
Cc1cn(/C=C(/C(N)=O)c2cncnc2)nc1-c1cc(C(F)(F)F)cc(C(F)(F)F)c1	2070 nM
NC(=O)/C(=C/n1cnc(-c2cc(C(F)(F)F)cc(C(F)(F)F)c2)n1)c1cccc(F)c1F	5200 nM

These reach a lower IC50. Values come first.

IC50	Structure (SMILES)
1190 nM	N#Cc1cn(/C=C(/C(N)=O)c2cncnc2)nc1-c1cc(C(F)(F)F)cc(C(F)(F)F)c1
359 nM	NC(=O)/C(=C/n1cnc(-c2cc(C(F)(F)F)cc(C(F)(F)F)c2)n1)c1cccnc1F
1270 nM	NC(=O)/C(=C/n1cnc(-c2cc(C(F)(F)F)cc(C(F)(F)F)c2)n1)c1ccc(NS(=O)(=O)C2CCCCC2)cc1
833 nM	CS(=O)(=O)Nc1cc(C#N)cc(/C(=C\n2cnc(-c3cc(C(F)(F)F)cc(C(F)(F)F)c3)n2)C(N)=O)c1
